According to ChEMBL document CHEMBL3875150, “Biological evaluation of some new N-(2,6-dimethoxypyrimidinyl) thioureido benzenesulfonamide derivatives as potential antimicrobial and anticancer agents” (Eur J Med Chem, 2016):
≈ marks a conversion by molar mass, not a printed value.

Columns and labels:
Aspergillus fumigatus [1] = test: Antifungal activity against Aspergillus fumigatus RCMB 002568 assessed as diameter of inhibition zone at 1 mg/mL after 48 hrs by agar well diffusion method; format: functional; details: RCMB 002568, 48 h, read-out: DIZ
Candida albicans [2] = test: Antifungal activity against Candida albicans RCMB 005036 assessed as diameter of inhibition zone at 1 mg/mL after 24 to 48 hrs by agar well diffusion method; format: functional; details: read-out: DIZ
Streptococcus pneumoniae [3] = test: Antibacterial activity against Streptococcus pneumoniae RCMB 010010 assessed as diameter of inhibition zone at 1 mg/mL after 24 to 48 hrs by agar well diffusion method; format: functional; details: read-out: DIZ
Bacillus subtilis [4] = test: Antibacterial activity against Bacillus subtilis RCMB 010067 assessed as diameter of inhibition zone at 1 mg/mL after 24 to 48 hrs by agar well diffusion method; format: functional; details: read-out: DIZ
Pseudomonas aeruginosa [5] = test: Antibacterial activity against Pseudomonas aeruginosa RCMB 010043 assessed as diameter of inhibition zone at 1 mg/mL after 24 to 48 hrs by agar well diffusion method; format: functional; details: read-out: DIZ
Escherichia coli [6] = test: Antibacterial activity against Escherichia coli RCMB 010052 assessed as diameter of inhibition zone at 1 mg/mL after 24 to 48 hrs by agar well diffusion method; format: functional; details: read-out: DIZ
Aspergillus fumigatus [7] = test: Antifungal activity against Aspergillus fumigatus RCMB 002568 after 24 to 48 hrs by agar well diffusion method; format: functional
Candida albicans [8] = test: Antifungal activity against Candida albicans RCMB 005036 after 24 to 48 hrs by agar well diffusion method; format: functional
Streptococcus pneumoniae [9] = test: Antibacterial activity against Streptococcus pneumoniae RCMB 010010 after 24 to 48 hrs by agar well diffusion method; format: functional
Bacillus subtilis [10] = test: Antibacterial activity against Bacillus subtilis RCMB 010067 after 24 to 48 hrs by agar well diffusion method; format: functional
Pseudomonas aeruginosa [11] = test: Antibacterial activity against Pseudomonas aeruginosa RCMB 010043 after 24 to 48 hrs by agar well diffusion method; format: functional
Escherichia coli [12] = test: Antibacterial activity against Escherichia coli RCMB 010052 after 24 to 48 hrs by agar well diffusion method; format: functional
[13] = (§1) Cytotoxicity against human MCF7 cells assessed as decrease in cell viability after 24 hrs by MTT assay; format: functional, cell-based; details: MCF7, 24 h
MCF7 = test: as §1; format: functional, cell-based

Row | SMILES | zone of inhibition at 1000 µg/mL (Aspergillus fumigatus [1]) [mm] | zone of inhibition at 1000 µg/mL (Candida albicans [2]) [mm] | zone of inhibition at 1000 µg/mL (Streptococcus pneumoniae [3]) [mm] | zone of inhibition at 1000 µg/mL (Bacillus subtilis [4]) [mm] | zone of inhibition at 1000 µg/mL (Pseudomonas aeruginosa [5]) [mm] | zone of inhibition at 1000 µg/mL (Escherichia coli [6]) [mm] | MIC (Aspergillus fumigatus [7]) [µg/mL] | MIC (Candida albicans [8]) [µg/mL] | MIC (Streptococcus pneumoniae [9]) [µg/mL] | MIC (Bacillus subtilis [10]) [µg/mL] | MIC (Pseudomonas aeruginosa [11]) [µg/mL] | MIC (Escherichia coli [12]) [µg/mL] | IC50 [13] [µg/mL] | Activity (MCF7)
1 | COc1cc(NS(=O)(=O)c2ccc(NC(=S)Nc3cccc4nsnc34)cc2)nc(OC)n1 | 22.3 | 20.4 | 22.7 | 26.3 | 11.7 | 24.2 | 1.95 (≈ 3.87 µM) | 3.9 (≈ 7.74 µM) | 1.95 (≈ 3.87 µM) | 0.98 (≈ 1.95 µM) | 250 (≈ 496 µM) | 0.98 (≈ 1.95 µM) | > 200 | Dose-dependent effect
2 | COc1cc(NS(=O)(=O)c2ccc(NC(=S)Nc3cc(=O)n(C)c(=O)n3C)cc2)nc(OC)n1 | 15.7 | 13.8 | 17.9 | 18.5 | 8.1 | 19.1 | 62.5 (≈ 123 µM) | 125 (≈ 246 µM) | 7.81 (≈ 15.4 µM) | 3.9 (≈ 7.68 µM) | 500 (≈ 985 µM) | 3.9 (≈ 7.68 µM) | 96.1 (≈ 189 µM) | Dose-dependent effect
3 | COc1cc(NS(=O)(=O)c2ccc(NC(=S)Nc3nccc4ccccc34)cc2)nc(OC)n1 |  |  |  |  |  |  |  |  |  |  |  |  | > 200 | Dose-dependent effect
4 | COc1cc(NS(=O)(=O)c2ccc(NC(=S)Nc3nc4cc(C)c(C)cc4s3)cc2)nc(OC)n1 | 23.3 | 21.4 | 22.7 | 25.3 | 10.3 | 26.3 | 1.95 (≈ 3.67 µM) | 3.9 (≈ 7.35 µM) | 1.95 (≈ 3.67 µM) | 0.98 (≈ 1.85 µM) | 250 (≈ 471 µM) | 0.98 (≈ 1.85 µM) | 93.9 (≈ 177 µM) | Dose-dependent effect
5 | COc1cc(NS(=O)(=O)c2ccc(NC(=S)Nc3nc4c(OC)cccc4s3)cc2)nc(OC)n1 | 16.4 | 13.2 | 17.8 | 18.3 | 8.9 | 16.2 | 7.81 (≈ 14.7 µM) | 125 (≈ 235 µM) | 7.81 (≈ 14.7 µM) | 7.81 (≈ 14.7 µM) | 500 (≈ 939 µM) | 62.5 (≈ 117 µM) | 47.6 (≈ 89.4 µM) | Dose-dependent effect
6 | COc1cc(NS(=O)(=O)c2ccc(NC(=S)Nc3ccncc3)cc2)nc(OC)n1 | 15.6 | 13.9 | 15.3 | 15.9 |  | 13.2 | 62.5 (≈ 140 µM) | 125 (≈ 280 µM) | 62.5 (≈ 140 µM) | 62.5 (≈ 140 µM) | > 1000 | 125 (≈ 280 µM) | 168 (≈ 376 µM) | Dose-dependent effect
7 | COc1cc(NS(=O)(=O)c2ccc(NC(=S)Nc3ccc4c(c3)oc(=O)c3ccccc34)cc2)nc(OC)n1 | 14.2 | 13.1 |  |  |  | 7.8 |  |  |  |  |  |  | 40.3 (≈ 71.5 µM) | Dose-dependent effect
8 | COc1cc(NS(=O)(=O)c2ccc(NC(=S)Nc3cc(=O)[nH]c(=O)[nH]3)cc2)nc(OC)n1 | 21.3 | 20.1 | 22.3 | 26.1 | 8.5 | 24.3 | 3.9 (≈ 8.13 µM) | 3.9 (≈ 8.13 µM) | 1.95 (≈ 4.07 µM) | 0.98 (≈ 2.04 µM) | 500 (≈ 1040 µM) | 0.98 (≈ 2.04 µM) | 37.3 (≈ 77.8 µM) | Dose-dependent effect
9 | COc1cc(NS(=O)(=O)c2ccc(NC(=S)Nc3c(C)n(C)n(-c4ccccc4)c3=O)cc2)nc(OC)n1 | 13.6 | 12.6 |  |  |  |  |  |  |  |  |  |  | 113 (≈ 203 µM) | Dose-dependent effect
10 | CCOc1ccc2nc(NC(=S)Nc3ccc(S(=O)(=O)Nc4cc(OC)nc(OC)n4)cc3)sc2c1 | 18.3 | 19.1 | 20.3 | 21.3 | 9.2 | 18.3 | 7.81 (≈ 14.3 µM) | 7.81 (≈ 14.3 µM) | 3.9 (≈ 7.13 µM) | 3.9 (≈ 7.13 µM) | 500 (≈ 915 µM) | 7.81 (≈ 14.3 µM) | > 200 | Dose-dependent effect
11 | COc1cc(NS(=O)(=O)c2ccc(NC(=S)Nc3cc(C)nc4ccccc34)cc2)nc(OC)n1 | 13.7 | 14.5 | 13.9 | 14.4 | 8.9 | 15 | 125 (≈ 245 µM) | 125 (≈ 245 µM) | 125 (≈ 245 µM) | 125 (≈ 245 µM) | 500 (≈ 979 µM) | 125 (≈ 245 µM) | 68.7 (≈ 135 µM) | Dose-dependent effect
12 | C[C@@H]1[C@H](O)[C@@H](C)/C=C/C=C/C=C/C=C/C=C/C=C/C=C/[C@H](O[C@@H]2O[C@H](C)[C@@H](O)[C@H](N)[C@@H]2O)C[C@@H]2O[C@](O)(C[C@@H](O)C[C@@H](O)[C@H](O)CC[C@@H](O)C[C@@H](O)CC(=O)O[C@H]1C)C[C@H](O)[C@H]2C(=O)O [AMPHOTERICIN B] | 23.7 | 25.4 |  |  |  |  | 1.95 (≈ 2.11 µM) | 3.9 (≈ 4.22 µM) |  |  |  |  |  | 
13 | COc1cc(NS(=O)(=O)c2ccc(NC(=S)Nc3nc(C)cc(C)n3)cc2)nc(OC)n1 |  |  |  |  |  |  |  |  |  |  |  |  | 82.9 (≈ 174 µM) | Dose-dependent effect
14 | COc1cc(NS(=O)(=O)c2ccc(NC(=S)Nc3ccc4c(C)cc(=O)oc4c3)cc2)nc(OC)n1 | 20.3 | 18.1 | 20.6 | 23.4 | 10.6 | 23.4 | 3.9 (≈ 7.39 µM) | 7.81 (≈ 14.8 µM) | 3.9 (≈ 7.39 µM) | 1.95 (≈ 3.7 µM) | 125 (≈ 237 µM) | 1.95 (≈ 3.7 µM) | 35.2 (≈ 66.7 µM) | Dose-dependent effect
15 | COc1cc(NS(=O)(=O)c2ccc(NC(=S)NN3C(=O)CSC3=S)cc2)nc(OC)n1 | 24.3 | 22.3 | 24.3 | 28.1 | 14.9 | 27.2 | 0.98 (≈ 1.96 µM) | 1.95 (≈ 3.9 µM) | 0.98 (≈ 1.96 µM) | 0.49 (≈ 0.979 µM) | 62.5 (≈ 125 µM) | 0.49 (≈ 0.979 µM) | 47.7 (≈ 95.3 µM) | Dose-dependent effect
16 | COc1cc(NS(=O)(=O)c2ccc(NC(=S)Nc3cccnc3)cc2)nc(OC)n1 |  |  |  |  |  |  |  |  |  |  |  |  | 170 (≈ 380 µM) | Dose-dependent effect
17 | O=C(O)c1cn(C2CC2)c2cc(N3CCNCC3)c(F)cc2c1=O [CIPROFLOXACIN] |  |  | 22.4 | 27.2 | 21.3 | 25.8 |  |  | 0.98 (≈ 2.96 µM) | 0.1 (≈ 0.302 µM) |  |  |  | 
18 | CCn1c2ccccc2c2cc(NC(=S)Nc3ccc(S(=O)(=O)Nc4cc(OC)nc(OC)n4)cc3)ccc21 | 10.3 | 12.1 |  |  |  |  |  |  |  |  |  |  | 143 (≈ 254 µM) | Dose-dependent effect
19 | COc1cc(NS(=O)(=O)c2ccc(NC(=S)Nc3nc4ccc([N+](=O)[O-])cc4s3)cc2)nc(OC)n1 | 11.7 | 10.8 | 13.3 | 14.1 |  | 13.3 | 250 (≈ 457 µM) | 250 (≈ 457 µM) | 125 (≈ 228 µM) | 125 (≈ 228 µM) | > 1000 | 125 (≈ 228 µM) | 9.43 (≈ 17.2 µM) | Dose-dependent effect
20 | COc1cc(NS(=O)(=O)c2ccc(NC(=S)Nc3nnc(C)c(C)n3)cc2)nc(OC)n1 |  |  |  |  |  |  |  |  |  |  |  |  | 44.8 (≈ 94 µM) | Dose-dependent effect
21 | O=c1[nH]cc(F)c(=O)[nH]1 [FLUOROURACIL] |  |  |  |  |  |  |  |  |  |  |  |  | 4.8 (≈ 36.9 µM) | Dose-dependent effect
22 | COc1cc(NS(=O)(=O)c2ccc(NC(=S)Nc3cnccn3)cc2)nc(OC)n1 | 24.9 | 23.4 | 25.8 | 26.4 | 18.3 | 28.7 | 0.98 (≈ 2.19 µM) | 1.95 (≈ 4.36 µM) | 0.98 (≈ 2.19 µM) | 0.98 (≈ 2.19 µM) | 62.5 (≈ 140 µM) | 0.49 (≈ 1.09 µM) | > 200 | Dose-dependent effect
23 | CCSc1nnc(NC(=S)Nc2ccc(S(=O)(=O)Nc3cc(OC)nc(OC)n3)cc2)s1 | 14.3 | 12.5 |  |  |  |  |  |  |  |  |  |  | 119 (≈ 232 µM) | Dose-dependent effect
